Earlier results as cited in PubChem BioAssay AID1259409 (Chemical Carcinogenesis Research Information System (CCRIS), 2018).

Tested on: rodent chemically induced tumor inhibition, incidence and multiplicity
Assay: CCRIS tumor inhibitor studies

For CC1=CC(=O)c2c(O)cccc2C1=O, the “tumour outcome (control, treated, inhibition, significance)” value (Carcinogen: AZOXYMETHANE [25843-45-2], Dose [Inhibitor]: 200 PPM IN DIET FOR 4 WK BEGINNING 1 WK PRIOR TO FIRST CARCINOGEN DOSE (STUDY DURATION: 35 WK), Route [Inhibitor]: ORAL, Species: RAT, Strain/Sex: F344/MALE, Target Tissue: Type of Lesion: COLON: ADENOMA, Dose [Carcinogen]: 15 MG/KG BW 1X/WK FOR 3 WK (STUDY DURATION: 35 WK), Promoter: NONE) is listed as 6/28 (21%), 3/29 (10%), 52%, not significant, the “tumour outcome (control, treated, inhibition, significance)” value (Carcinogen: AZOXYMETHANE [25843-45-2], Dose [Inhibitor]: 200 PPM IN DIET FOR 4 WK BEGINNING 1 WK PRIOR TO FIRST CARCINOGEN DOSE (STUDY DURATION: 35 WK), Route [Inhibitor]: ORAL, Species: RAT, Strain/Sex: F344/MALE, Target Tissue: Type of Lesion: COLON: CARCINOMA, Dose [Carcinogen]: 15 MG/KG BW 1X/WK FOR 3 WK (STUDY DURATION: 35 WK), Promoter: NONE) is listed as 8/28 (29%), 8/29 (28%), 3%, not significant and the “tumour outcome (control, treated, inhibition, significance)” value (Carcinogen: AZOXYMETHANE [25843-45-2], Dose [Inhibitor]: 200 PPM IN DIET FOR 4 WK BEGINNING 1 WK PRIOR TO FIRST CARCINOGEN DOSE (STUDY DURATION: 35 WK), Route [Inhibitor]: ORAL, Species: RAT, Strain/Sex: F344/MALE, Target Tissue: Type of Lesion: SMALL INTESTINE: CARCINOMA, Dose [Carcinogen]: 15 MG/KG BW 1X/WK FOR 3 WK (STUDY DURATION: 35 WK), Promoter: NONE) is listed as 7/28 (25%), 3/29 (10%), 60%, not significant.
In the case of CCCCCCCCCCCCCCCC(=O)OCC(COC(=O)CCCCCCCCCCCCCCC)OC(=O)CCCCCCCCCCCCCCC, the “tumour outcome (control, treated, inhibition, significance)” value (Carcinogen: DIMETHYLBENZANTHRACENE, 57-97-6, Dose [Inhibitor]: APPLIED 3 MIN POST EACH PROMOTER DOSE 3/WK FOR 20 WK BEGINNING 3 D POST CARCINOGEN DOSE (STUDY DURATION: 20 WK), Route [Inhibitor]: DERMAL, Species: MOUSE, Strain/Sex: SWISS/?, Target Tissue: Type of Lesion: SKIN: TUMOR, Dose [Carcinogen]: 250 UG/0.25 ML ONCE, Promoter: CROTON OIL, 8001-28-3) is listed as 100%, 25%, 75%, not calculated.
In the case of c1ccc(Cn2ccnc2)cc1, the “tumour outcome (control, treated, inhibition, significance)” value (Carcinogen: 7,12-DIMETHYLBENZ[A]ANTHRACENE, 57-97-6, Dose [Inhibitor]: 100 UG IN 0.2 ML ACETONE ONCE 5 MIN BEFORE CARCINOGEN TREATMENT (STUDY DURATION: 31 WK), Route [Inhibitor]: DERMAL, Species: MOUSE, Strain/Sex: CD-1/FEMALE, Target Tissue: Type of Lesion: SKIN: PAPILLOMA, Dose [Carcinogen]: 10 NMOL IN 0.2 ML ACETONE ONCE, Promoter: 12-O-TETRADECANOYLPHORBOL-13-ACETATE, 16561-29-8) is given as 87%, 80%, 8%, not calculated and the “tumour outcome (control, treated, inhibition, significance)” value (Carcinogen: BENZO[A]PYRENE, 50-32-8, Dose [Inhibitor]: 100 UG IN 0.2 ML ACETONE ONCE 5 MINUTES BEFORE CARCINOGEN TREATMENT (STUDY DURATION: 31 WK), Route [Inhibitor]: DERMAL, Species: MOUSE, Strain/Sex: CD-1/FEMALE, Target Tissue: Type of Lesion: SKIN: PAPILLOMA, Dose [Carcinogen]: 400 NMOL IN 0.2 ML ACETONE ONCE, Promoter: 12-O-TETRADECANOYLPHORBOL-13-ACETATE, 16561-29-8) is given as 90%, 78%, 13%, not calculated.
